Test results reported in patent publication US12053465B2, “KCC2 expression enhancing compounds and uses thereof” (Whitehead Institute for Biomedical Research, priority 2017, dated 2024).
Entries after “also recorded” stand apart in the source; their conditions may differ.

Assays:
KCC2 expression = test: Western blot of KCC2 in cultured human RTT neurons; format: cell-based; settings: Western blot; for KCC2 expression: cultured human RTT neurons
In short: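 Cultured neurons lysed in RIPA buffer (pH 7.6) with sonication; immunoblotted on PVDF with KCC2 antibody (1:2000) overnight at 4° C., HRP secondary.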

[1] = tested on: mouse models of autism and depression; settings: intraperitoneal (IP) injection; previous work (59, 60); cited from earlier work
Mecp2 mutant mice [2] = test: Plethysmograph breathing measurement in Mecp2 mutant mouse model of RTT; format: in vivo; settings: male Mecp2 mutant mice; daily injection, two weeks; vs DMSO- or EtOH-injected control
Protocol: (§1) We assessed the in vivo efficacy of KEECs by treating RTT disease-related symptoms such as breathing pauses and reduced locomotion (58) in a Mecp2 mutant mouse model of RTT. […] Plethysmograph and locomotion measurements were made in 4-6 week-old male Mecp2 mutant animals as a pre-treatment control time point and were then injected daily with KEECs KW-2449 or Piperine. Injection of the solvent DMSO or ethanol (EtOH) served as vehicle controls (FIG. 15A). The same two behavioral measurements in vehicle or KEEC-injected Mecp2 mutant animals were performed again two weeks after the start of daily injections. Each animal's ‘after injection’ data were compared to the ‘before injection’ level to assess behavioral changes.
Male Mecp2 mutant mice (Mecp2^−/y, e.g. the Bird model) between 4-12 weeks of age were used for the in vivo experiments. Subjects were divided into drug treated KO (Piperine/KW-2449), and vehicle treated KO (EtOH/DMSO) groups. Animals were randomly assigned to treatment arms with approximately equivalent numbers in each group. […]
A full body plethysmograph chamber (EMKA Inc, PA) was used to measure breathing patterns. […] For each test, the subject was left in the chamber for 20 minutes, afterwards its breath pattern was recorded for the next 20 minutes, and the estimated amplitude modulation index (eAMI) was calculated from the breath trace to label breath pauses automatically. […]

Mecp2 mutant mice [3] = test: Locomotion (infrared beam break) in Mecp2 mutant mouse model of RTT; format: in vivo
Protocol: as §1
Male Mecp2 mutant mice (Mecp2^−/y, e.g. the Bird model) between 4-12 weeks of age were used for the in vivo experiments. Subjects were divided into drug treated KO (Piperine/KW-2449), and vehicle treated KO (EtOH/DMSO) groups. Animals were randomly assigned to treatment arms with approximately equivalent numbers in each group.
KW-2449 stock solution was prepared at 10 mg/ml with DMSO, and Piperine stock solution at 30 mg/ml with EtOH. 20 μl of stock solution were diluted with 1 ml saline for injection. Daily drug treatments or sham injections were performed on both groups between P28 and P56, for at least two weeks, as Mecp2 mutant mice start to show symptoms around P28 and die around P60. Both following tests were performed on both groups of mice before the injections start, and repeated at the end of the injection period. The animals' performance was then compared before and after drug/vehicle injections.
To measure the subjects' nighttime locomotion, a 1-D infrared light-beam frame (ActiMot, TSE-systems, MO) was used. Animals were single-housed in new cages with the same setup as their home cages. The infrared monitor was set up for each cage and the beam crossings was recorded between 17:00 and 9:00 the next morning, where the lights were turned off between 19:00 and 7:00. The average beam crossing frequency during the night (21:00-5:00) was used as the subject's activity score, and the average beam crossing frequency after lights on (7:00-9:00) was used as the subject's day time activity score. The time periods where the mouse is stationary for >5 minutes are discarded to reduce artifact caused by the mouse sleeping. As we look at both day-time and night-time locomotion, a bonferroni correction with repeated comparison number of 2 was applied. All behavioral analyses were performed by experimenters who were blind to the treatment condition.

[4] = tested on: KCC2 expression (KCC2-2A-luciferase reporter); test: KCC2-2A-luciferase reporter compound screening with RTT KCC2 reporter neurons; format: cell-based, human; settings: MECP2-null RTT human KCC2 reporter neurons; LINCS, SMART, ICCB libraries; Luc/CTG normalized to in-plate DMSO; hit = B score >3
In short: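 MECP2-null RTT human neurons carrying a KCC2-2A-luciferase reporter, differentiated 4 weeks, were treated with library compounds at 10 μM for 1–2 weeks at 37 °C. Lysate luciferase was normalized to CellTiter-Glo ATP per well and expressed as fold change over in-plate DMSO. Hits were called at B score >3.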

For O=C(/C=C/C=C/c1ccc2c(c1)OCO2)N1CCCCC1 [Piperine, (2E,4E)-5-(Benzo[d][1,3]dioxol-5-yl)-1-(piperidin-1-yl)penta-2,4-dien-1-one], which “concentration at which treatment significantly increases KCC2 expression” value (KCC2 expression; cultured ESC-derived human RTT neurons) is on record?
Its value is 10 µM.

And the KCC2 expression (KCC2 expression)?
Its KCC2 expression is “induced KCC2 expression in a dose-dependent manner; also recorded: significant increase in KCC2 expression”.

What about the KCC2 expression (KCC2 expression; listed as piperine) of the same compound?
Its KCC2 expression is “increase KCC2 expression”.

What about the “symptoms in mouse models of autism and depression” value [1] of the same compound?
Its value is “improved symptoms”.

What about the “frequency of breathing pauses” value (Mecp2 mutant mice [2]) of the same compound?
Its value is “significantly reduced the frequency of breathing pauses”.

What about the day-time locomotion (Mecp2 mutant mice [3]; Mecp2 mutant animals, vs EtOH control) of the same compound?
Its day-time locomotion is “significantly increased day-time locomotion”.

What about the locomotive activities (Mecp2 mutant mice [3]; male Mecp2 mutant mice, daily injection, two weeks, vs DMSO- or EtOH-injected control) of the same compound?
The locomotive activities was “increased locomotive activities”.

What about the “B Score” value [4] of the same compound?
Its value is 4.69.
